Data reported in ChEMBL document CHEMBL1201862, “PubChem BioAssay data set” (2004).
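These data come from cells grown in 96-well plates and exposed to compound for 48 hours at five concentrations. Here, GI50 denotes the concentration required for 50% inhibition of growth.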 Calls of active or inactive are those of the source. Cut-off read from the data, not from the text of the source: active = GI50 up to about 1.1 µM and inactive = higher.

How the values were obtained:
Test in all cases: DTP human tumour cell line panel, 48 h
786-0 = test system: 786-0
A498 = test system: A498
A549 = test system: A549
ACHN = test system: ACHN
BT-549 = test system: BT-549
CAKI-1 = test system: CAKI-1
CCRF-CEM = test system: CCRF-CEM
COLO 205 = test system: COLO 205
DU-145 = test system: DU-145
EKVX = test system: EKVX
HCC 2998 = test system: HCC 2998
HCT-116 = test system: HCT-116
HCT-15 = test system: HCT-15
HL-60 = test system: HL-60
HOP-62 = test system: HOP-62
HOP-92 = test system: HOP-92
HT-29 = test system: HT-29
Hs-578T = test system: Hs-578T
IGROV-1 = test system: IGROV-1
K562 = test system: K562
KM12 = test system: KM12
LOX IMVI = test system: LOX IMVI
M14 = test system: M14
MCF7 = test system: MCF7
MDA-MB-231 = test system: MDA-MB-231
MDA-MB-435 = test system: MDA-MB-435
MOLT-4 = test system: MOLT-4
Malme-3M = test system: Malme-3M
NCI-H226 = test system: NCI-H226
NCI-H23 = test system: NCI-H23
NCI-H460 = test system: NCI-H460
NCI-H522 = test system: NCI-H522
NCI/ADR-RES = test system: NCI/ADR-RES
OVCAR-3 = test system: OVCAR-3
OVCAR-4 = test system: OVCAR-4
OVCAR-5 = test system: OVCAR-5
OVCAR-8 = test system: OVCAR-8
PC-3 = test system: PC-3
RPMI-8226 = test system: RPMI-8226
RXF 393 = test system: RXF 393
SF-268 = test system: SF-268
SF-295 = test system: SF-295
SF-539 = test system: SF-539
SK-MEL-28 = test system: SK-MEL-28
SK-MEL-2 = test system: SK-MEL-2
SK-MEL-5 = test system: SK-MEL-5
SK-OV-3 = test system: SK-OV-3
SN12C = test system: SN12C
SNB-19 = test system: SNB-19
SNB-75 = test system: SNB-75
SR = test system: SR
SW-620 = test system: SW-620
T47D = test system: T47D
TK-10 = test system: TK-10
U-251 = test system: U-251
UACC-257 = test system: UACC-257
UACC-62 = test system: UACC-62
UO-31 = test system: UO-31
MDA-N = test system: MDA-N

Measured: GI50

c1ccc(CSc2nc(N3CCCCC3)c3cn[nH]c3n2)cc1
33.2 µM: HCT-15
inactive: 786-0 25.2 µM | A498 15.6 µM | A549 27.4 µM | ACHN 27.2 µM | BT-549 16.5 µM | CAKI-1 29.6 µM | CCRF-CEM 44 µM | COLO 205 23 µM | DU-145 30.3 µM | EKVX 20.3 µM | HCC 2998 18.7 µM | HCT-116 19.2 µM | HL-60 13.3 µM | HOP-62 17.1 µM | HOP-92 21.3 µM | HT-29 31.8 µM | Hs-578T 17.3 µM | IGROV-1 17.5 µM | K562 40.3 µM | KM12 14.7 µM | LOX IMVI 21 µM | M14 19.8 µM | MCF7 26.9 µM | MDA-MB-231 16.3 µM | MDA-MB-435 22.4 µM | MOLT-4 49.1 µM | Malme-3M 20.4 µM | NCI-H226 18.8 µM | NCI-H23 26.4 µM | NCI-H460 22.8 µM | NCI-H522 17 µM | NCI/ADR-RES 61.2 µM | OVCAR-3 24.5 µM | OVCAR-4 36.1 µM | OVCAR-5 27.9 µM | OVCAR-8 23.4 µM | PC-3 22.5 µM | RPMI-8226 26.6 µM | RXF 393 16.1 µM | SF-268 23.8 µM | SF-295 24.9 µM | SF-539 18.4 µM | SK-MEL-28 19.9 µM | SK-MEL-2 16.2 µM | SK-MEL-5 16.5 µM | SK-OV-3 36.6 µM | SN12C 19.7 µM | SNB-19 25.2 µM | SNB-75 20.7 µM | SR 25.3 µM | SW-620 19.9 µM | T47D 21.9 µM | TK-10 30.1 µM | U-251 19.1 µM | UACC-257 18 µM | UACC-62 15.4 µM | UO-31 16.6 µM

CC1(C)OCC(C2OC(OC(=O)c3ccc(C(F)(F)F)cc3)C3OC(C)(C)OC23)O1 (stereo not drawn)
> 77.4 µM: HCT-15
inactive: 786-0 46.5 µM | A498 > 77.4 µM | A549 > 77.4 µM | ACHN > 77.4 µM | BT-549 > 77.4 µM | CAKI-1 > 77.4 µM | CCRF-CEM 28.2 µM | COLO 205 > 77.4 µM | DU-145 > 77.4 µM | EKVX > 77.4 µM | HCC 2998 > 77.4 µM | HCT-116 > 77.4 µM | HOP-62 39.9 µM | HT-29 73.1 µM | IGROV-1 > 77.4 µM | K562 > 77.4 µM | KM12 72.3 µM | LOX IMVI > 77.4 µM | M14 > 77.4 µM | MCF7 53.3 µM | MDA-MB-231 63 µM | MDA-MB-435 > 77.4 µM | MDA-N > 77.4 µM | MOLT-4 38 µM | Malme-3M > 77.4 µM | NCI-H226 > 77.4 µM | NCI-H23 58.3 µM | NCI-H460 49.5 µM | NCI-H522 > 77.4 µM | NCI/ADR-RES 62.1 µM | OVCAR-3 > 77.4 µM | OVCAR-4 > 77.4 µM | OVCAR-5 > 77.4 µM | OVCAR-8 > 77.4 µM | PC-3 > 77.4 µM | RPMI-8226 44.4 µM | RXF 393 28 µM | SF-268 45.4 µM | SF-295 > 77.4 µM | SF-539 > 77.4 µM | SK-MEL-28 > 77.4 µM | SK-MEL-2 > 77.4 µM | SK-MEL-5 74.5 µM | SK-OV-3 > 77.4 µM | SN12C > 77.4 µM | SNB-19 > 77.4 µM | SNB-75 40.2 µM | SR 23.4 µM | SW-620 > 77.4 µM | TK-10 > 77.4 µM | U-251 57.8 µM | UACC-257 > 77.4 µM | UACC-62 > 77.4 µM | UO-31 19 µM

COC1C=COC2(C)Oc3c(C)c(O)c4c(O)c(c(C5SCCS5)c(O)c4c3C2=O)NC(=O)C(C)=C/C=C\C(C)C2OC(C)(C)OC(C2C)C(C)C(OC(C)=O)C1C (stereo not drawn)
inactive: 786-0 10.1 µM | A498 12.3 µM | A549 3.66 µM | ACHN 3.15 µM | BT-549 3.73 µM | CAKI-1 6.12 µM | CCRF-CEM 5.86 µM | COLO 205 3.38 µM | DU-145 8.93 µM | HCC 2998 5.15 µM | HCT-116 5.05 µM | HL-60 5.53 µM | HOP-62 12.2 µM | HOP-92 5.55 µM | Hs-578T 15.8 µM | IGROV-1 6.56 µM | K562 4.09 µM | KM12 6.04 µM | LOX IMVI 5.31 µM | M14 9.31 µM | MCF7 2.92 µM | MDA-MB-231 13.6 µM | MDA-MB-435 4.79 µM | MOLT-4 3.83 µM | Malme-3M 11.5 µM | NCI-H226 6.71 µM | NCI-H23 6.44 µM | NCI-H460 4.21 µM | NCI-H522 5.02 µM | NCI/ADR-RES 11.6 µM | OVCAR-3 4.78 µM | OVCAR-4 6.07 µM | OVCAR-5 24.3 µM | OVCAR-8 5.15 µM | PC-3 5.31 µM | RPMI-8226 4.57 µM | RXF 393 7.21 µM | SF-268 7.33 µM | SF-295 5.32 µM | SF-539 12.9 µM | SK-MEL-28 23.5 µM | SK-MEL-2 5.79 µM | SK-MEL-5 3.77 µM | SK-OV-3 17.1 µM | SN12C 4.3 µM | SNB-19 16.4 µM | SNB-75 42.3 µM | SW-620 7 µM | T47D 70.6 µM | TK-10 6.41 µM | U-251 4.78 µM | UACC-257 2.74 µM | UACC-62 4.02 µM | UO-31 7.41 µM
5.6 µM: HCT-15
